Several values for one entry are separate records, joined by “and”; a condition that tells them apart may be missing. Equal entries are not always repeated.
How the values were obtained:
[1] = biological target: T1, cocaine binding site of the human dopamine transporter (Homo sapiens, UniProt Q01959); test: [3H]CFT binding at the cocaine binding site, hDAT cells
T1 construct: expressed in transfected cells

[2] = biological target: T2, human dopamine transporter (Homo sapiens, UniProt Q01959); test: [3H]Dopamine uptake inhibition, hDAT cells; type: cell-based; details: for Uptake to Binding Ratio (Kiuptake/Kibinding): ratio of Kiuptake to Kibinding at hDAT
T2 construct: expressed in transfected cells

Male Long-Evans rats = test: Inhibition of nicotine self-administration in male Long-Evans rats; type: in vivo, rat; details: 10, 20 and 30 mg/kg i.p. 15 minutes before 60 minute session; nicotine 30 μg/kg/infusion; FIG. 1
Protocol: Male Long-Evans rats were trained to self-administer nicotine on a fixed ratio schedule of reinforcement, as described by Corrigall et al., Psychopharmacology, Vol. 104, No. 2, pp. 171-176 (1991) and Corrigall et al., Psychopharmacology, Vol. 107, Nos. 2-3, pp. 285-289 (1992). In brief, male Long-Evans rats were food deprived for a short period of time (24-48 hours) and trained to press a lever in an operant responding chamber on an FR-1 schedule of food reinforcement. Once trained, each rat was surgically prepared with a chronic intravenous catheter implanted into the jugular vein. The rats were allowed 1 week to recover from surgery.
After 1 week, nicotine self-administration studies were initiated on an FR-1 with a 60 second signaled time-out following each infusion. During time-out, responding on the lever had no scheduled consequence. Nicotine self-administration sessions were 60 minutes in duration. Each nicotine infusion contained 30 μg of nicotine/kg rat and were delivered in a volume of 54 μl over an infusion duration of 0.3 seconds. 15 minutes before the self-administration sessions, the rats were pre-treated intraperitoneally with (R)-(+)-α,α-diphenyl-2-pyrrolidinemethanol at doses of 10, 20 and 30 mg/kg.

[3] = test system: alcohol-preferring (P) line of rats; test: Inhibition of ethanol intake in alcohol-preferring rats; type: in vivo, rat; details: 30 mg/kg i.p.
Protocol: The effect of systemic administration of (R)-(+)-α,α-diphenyl-2-pyrrolidinemethanol on ethanol intake in the alcohol-preferring (P) line of rats was performed as previously described by Panocka et al., Pharm. Biochem. and Behavior, 1995, 52, 2, 255-259, and Murphy et al., Alcohol, 1985, 2, 349-352. In brief, (R)-(+)-α,α-diphenyl-2-pyrrolidinemethanol (30 mg/kg i.p.) was tested in female P rats (n=8) given daily 1 hour scheduled access to a 10% (v/v) ethanol solution. A within-subject design was used where (R)-(+)-α,α-diphenyl-2-pyrrolidinemethanol treatments were tested once per week. Baseline ethanol drinking consisted of the mean of the 3 days prior to testing in which saline injections were given. (R)-(+)-α,α-diphenyl-2-pyrrolidinemethanol or saline, administered i.p. in 1 ml/kg volumes, were injected 10-15 minutes prior to ethanol access. Twenty-four hour water and daily body weights were recorded to assess non-specific drug effects. Results were analyzed using paired t-tests with baseline and test day values serving as the independent variables. Ethanol intake was recorded as amount of solution consumed (mls).

[4] = individual rats P31-P40 (b249-b258 in order)

T1 sequence (Q01959 whole entry): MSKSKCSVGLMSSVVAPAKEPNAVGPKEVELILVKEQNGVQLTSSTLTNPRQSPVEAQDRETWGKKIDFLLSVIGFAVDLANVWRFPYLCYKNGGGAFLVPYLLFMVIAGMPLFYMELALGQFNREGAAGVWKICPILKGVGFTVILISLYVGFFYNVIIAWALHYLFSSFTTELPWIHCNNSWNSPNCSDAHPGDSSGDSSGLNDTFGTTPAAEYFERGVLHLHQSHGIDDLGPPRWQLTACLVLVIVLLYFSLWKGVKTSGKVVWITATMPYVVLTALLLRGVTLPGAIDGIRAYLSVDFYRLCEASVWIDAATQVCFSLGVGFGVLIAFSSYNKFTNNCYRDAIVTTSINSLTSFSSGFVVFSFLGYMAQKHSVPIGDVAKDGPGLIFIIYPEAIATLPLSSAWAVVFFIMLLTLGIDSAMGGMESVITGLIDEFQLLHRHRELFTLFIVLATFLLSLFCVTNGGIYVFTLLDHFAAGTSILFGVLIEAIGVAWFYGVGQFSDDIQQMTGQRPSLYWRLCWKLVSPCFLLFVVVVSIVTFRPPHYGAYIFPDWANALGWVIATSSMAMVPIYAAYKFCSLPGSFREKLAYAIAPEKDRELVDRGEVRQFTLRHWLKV
T2 sequence (Q01959 whole entry): as above

| Structure (SMILES) | Ki [1] | Ki [2] | Uptake to Binding Ratio (Kiuptake/Kibinding) [2] | nicotine self-administration (Male Long-Evans rats) | reduction of ethanol consumption ([3]; 1 hour access period, vs saline baseline, p<0.05) | effect on water consumption ([3]; 24 hours following administration) | Post-drug Water 24 hr ([3]; Means of rats P31-P40) | Post-drug Weight ([3]; Means of rats P31-P40) | Test Day Ethanol 1 hr (g/kg) ([3]; Means of rats P31-P40) | Test Day Ethanol 1 hr (ml) ([3]; Means of rats P31-P40) | effect on body weights ([3]; P rats) | 1 hour ethanol consumption ([3]; female P rats, 10% (v/v) ethanol, mean ± S.E.M., saline baseline 8.2±0.8 mls, p<0.05) | 24 hour water intake ([3]; female P rats, mean ± S.E.M., saline baseline 28±2.2 mls) | 24 hour body weights ([3]; female P rats, mean ± S.E.M., saline baseline 310±6.1 g) | Post-drug Water 24 hr [3, 4] | Post-drug Weight [3, 4] | Test Day Ethanol 1 hr (g/kg) [3, 4] | Test Day Ethanol 1 hr (ml) [3, 4] |
| --- | --- | --- | --- | --- | --- | --- | --- | --- | --- | --- | --- | --- | --- | --- | --- | --- | --- | --- |
| Cc1cc(C(O)(c2ccc(F)c(C)c2)[C@@H]2CCCN2)ccc1F [Compound 4, (S)-α,α-Bis(3-methyl-4-fluorophenyl)-2-pyrrolidinemethanol] | 260 nM | 440 nM | 1.69 |  |  |  |  |  |  |  |  |  |  |  |  |  |  |  |
| OC(c1ccccc1)(c1ccccc1)[C@H]1CCCN1 [Compound 1, (R)-(+)-α,α-diphenyl-2-pyrrolidinemethanol] | 40 nM | 170 nM | 4.25 | dose-dependently attenuated | approximately 45% | no effect | 25 mL | 300 g | 1.2 g/kg | 4.5 mL | not altered | 4.5±1.2 mls | 25±2.1 mls | 300 ± 6.2 g | 23 mL and 26 mL and 28 mL and 32 mL and 18 mL and 12 mL | 329 g and 291 g and 294 g and 305 g and 290 g and 297 g and 312 g and 263 g and 323 g | 1.9 g/kg and 0.3 g/kg and 0.5 g/kg and 2.4 g/kg and 1.0 g/kg and 0.8 g/kg and 0 g/kg | 8 mL and 7 mL and 1 mL and 2 mL and 10 mL and 9 mL and 4 mL and 3 mL and 0 mL |
| OC(c1ccccc1)(c1ccccc1)[C@@H]1CCCN1 [Compound 2, (S)-(-)-α,α-diphenyl-2-pyrrolidinemethanol] | 400 nM | 1650 nM | 4.12 |  |  |  |  |  |  |  |  |  |  |  |  |  |  |  |
| CCCN1CCC[C@H]1C(O)(c1ccccc1)c1ccccc1 [Compound 3, (S)-(-)-1-propyl-α,α-diphenyl-2-pyrrolidinemethanol] | 3300 nM | 10300 nM | 3.12 |  |  |  |  |  |  |  |  |  |  |  |  |  |  |  |
